Measured values from the NIST ThermoML archive (doi:10.1016/j.fluid.2005.03.019).

Columns and labels:
[1] = refractive index (Na D-line) (dimensionless); settings: 293.1 K; 101.33 kPa; Liquid; Standard Abbe refractometry
[2] = Liquid

CC(C)COC(=O)C1CCCCC1C(=O)OCC(C)C (stereo unspecified) [diisobutyl hexahydrophthalate]
Settings | refractive index
[1] | 1.453

[2]
Settings | vapor or sublimation pressure [kPa]
434.4 K | 0.732
448.2 K | 1.539
463.3 K | 2.912
478.7 K | 4.813
486.4 K | 6.342
491.5 K | 7.672
500.3 K | 10.2
506.6 K | 12.5
509.6 K | 13.99
515 K | 16.31
519.5 K | 18.67
524.1 K | 21.3
527.8 K | 23.69
534.8 K | 28.61
538.2 K | 30.94
